Results as given in patent US8778959B2, “AZA-bridged ring-fused indoles and indolines” (AbbVie Inc., priority 2009, dated 2014).

Key:
[1] = test system: primary rat cortical neurons; settings: comparable to that evoked by BDNF; cited from earlier work
[2] = test system: patients with mild-to-moderate Alzheimer's disease; settings: cited from earlier work
[3] = test system: primary postnatal (P0) cortical cells; test: Neurite Outgrowth Assay (Aβ1-42-treated cortical cells); format: cell-based, rat; settings: n = 1; for % Attenuation Effect of 5 μM Aβ 1-42: 5 μM Aβ1-42; for Emax: Rattus norvegicus, maximum response relative to 300 nM dimebolin, at the concentration given, read-out: Maximum Effect (of % 300 nM Dimebolin) at Concentration; for Concentration (nM) of Maximum Effect: test compound concentration at which the maximum response was noted
Procedure: In addition to PC12 cells, other cellular model systems may also be used. Rat cortical cells can be cultured and prepared for high content microscopy analysis as previously described (Hu, M.; Schurdak, M. E.; et al. High content screen microscopy analysis of Aβ1-42-induced neurite outgrowth reduction in rat primary cortical neurons: Neuroprotective effects of α7 neuronal nicotinic acetylcholine receptor ligands. Brain Res. 2007, 1151, 227-235). Briefly, cortical cell cultures are plated at density of 5×10^5 cells/mL onto poly-D-lysine coated 96-well plates and maintained in a cell incubator at 37° C. with 5% CO2. Experiments are performed using 6-7 day-old cortical cell cultures by treating with test compounds. In some experiments, the effect of test compounds on reversing Aβ toxicity can also be measured (Hu, M.; Schurdak, M. E.; et al. High content screen microscopy analysis of Aβ1-42-induced neurite outgrowth reduction in rat primary cortical neurons: Neuroprotective effects of α7 neuronal nicotinic acetylcholine receptor ligands. Brain Res. 2007, 1151, 227-235). For assessment of neuroprotective effects, cells are first pretreated with test compounds for about 5 hours. Medium is then replaced with the medium containing freshly prepared about 5 μM Aβ1-42 peptide in the absence or presence of the test compounds for 3 days. The untreated group contains the same percentage of vehicle (DMSO) as in the treatment groups. Cells are fixed with approximately 4% paraformaldehyde containing 0.5% Hoechst 33342 for about 15 minutes, followed by three washes using PBS (pH 7.4) and blocked with 10% donkey serum in PBS for 1 hour at room temperature. The cells are then incubated overnight at about 4° C. with mouse anti-tubulin monoclonal antibody (1:100) for staining neurons and rabbit anti-GFAP (1:1000) for staining glia. In the next day, cells are incubated with FITC-labeled anti-mouse and TRITC-labeled anti-rabbit antibodies (1:1000) for about 1 hour at room temperature. After fixing and staining the cells, nuclei (360/400 nm excitation and 465/300 nm emission filters), neuron (475/350 nm excitation and 535/400 nm emission filters) and glial cell (535 nm excitation and 610 nm emission filters) images are collected using the ImageExpress Micro automatic fluorescent microscopy system (Molecular Devices, Sunnyvale, Calif.) employing a Nikon 10× Plan Fluor objective and Cool Snap HQ CCD camera. The Neurite Outgrowth module in the MetaMorph Imaging software can be used to automatically count total cell number, number of neuron cells, and the extent of neurite outgrowth.
The neurite outgrowth observed for untreated cells is set to 100% response. Treatment of cells with compounds prior to and concomitantly with Aβ1-42 gave a neuroprotective effect with neurite outgrowth maintained or enhanced relative to untreated cells.

[4] = test system: SK-N-SH human neuroblastoma cells; test: Serum Deprivation/JC-1 Mitochondrial Membrane Potential (MMP) Assay; format: cell-based; settings: Homo sapiens, SK-N-SH, 18 h; for Emax: percent maximal intensity in JC-1 ratio normalized to peak value for 10 μM dimebolin, read-out: JC-1 max %; for EC50: serum deprivation ~18 hours, JC-1 ratio normalized to peak value for 10 μM dimebolin, single curve fit to mean of n=2-3
Procedure: SK-N-SH human neuroblastoma cells obtained from American Type Culture Collection (Rockville, Md.) were maintained in the log phase of growth in Minimal Essential Media (MEM), 10% heat inactivated fetal calf serum and 100 units/mL antibiotic-antimycotic (AA). Cells were cultured and maintained in a humidified incubator at 37° C. under 5% CO2 and 95% air. Cells were trypsinized (0.25%) and subcultured every 3 days and used from 15-18 passages. All cell culture supplies were obtained from Invitrogen (Carlsbad, Calif.).
SK-N-SH cells were plated 2-3 days in advance at a concentration of 50,000 cells/well onto collagen coated black-walled 96 well plates (Becton-Dickinson, Bedford, Mass.) in a total volume of 200 μL. On day of experimental treatment, the media containing serum was aspirated from each well and rinsed once with MEM/1% AA without serum. The cells then were incubated overnight in 100 μL of MEM/1% AA (no serum) with and without dimebolin or novel chemical entities overnight for ˜18 hours. The following day, JC-1 dye (5,5′,6,6′-tetrachloro-1,1′,3,3′-tetraethylbenzimidazolcarbocyanide) was diluted 1:10 into MEM media according to the JC-1 Mitochondrial Membrane Potential Assay Kit: (Cayman Chemical Company, Ann Arbor, Mich.) and then 10 μL of the JC-1 dye solution was added to each well. The plates were centrifuged for 5 minutes at 400×g at room temperature followed by 35 minute incubation at 37° C. The plates were washed twice with 200 μL of provided Assay Buffer followed an addition of 100 μL of Assay Buffer to each well. The plates were read with an excitation and emission of 560 nm and 595 nM for red fluorescence and with an excitation and emission of […] and 535 nM for green fluorescence to determine the final JC-1 value taking the red to green fluorescence ratio. This assay is based on change in mitochondrial membrane potential (MMP) using this lipophilic cationic dye, JC-1, by monitoring the changes in the ratio of red to green fluorescence as the MMP depolarizes. This change in MMP reflects the health of the cell with healthy, viable cells have a high JC-1 ratio and high MMP whereas apoptotic, unhealthy cells have a low JC-1 ratio or low MMP.
For the ability of compounds to reverse the stress due to serum deprivation and increase the JC-1 ratio, the percent maximal intensity in JC-1 ratio was normalized to that induced by the peak value for 10 μM dimebolin and plotted against the compound concentration to calculate EC50 values and to control for plate-to-plate variability. Concentration-response data were analyzed using GraphPad Prism (San Diego, Calif.); the EC50 values were derived from a single curve fit to the mean data of n=2-3, in duplicates.
All compounds were dissolved in dimethyl sulfoxide at 10 mM stock solutions and tested at a concentration that the dimethyl sulfoxide levels never exceeded 1%.

[5] = test system: mouse model of multiple sclerosis; settings: in vivo administration; cited from earlier work

Row | SMILES | Neurite outgrowth [1] | Clinical course of disease (ADAS-Cog, improvement over baseline) ([2]; 20 mg three times a day (60 mg/day)) | Most frequent adverse event ([2]; reported clinical studies) | % Attenuation Effect of 5 μM Aβ 1-42 [3] | Emax [3] | Concentration (nM) of Maximum Effect [3] | Emax [4] | EC50 [4] | Development of the disease [5]
1 | Cc1ccc2c(c1)c1c(n2CCc2ccc(C)nc2)CCN(C)C1 [dimebolin, 2,3,4,5-tetrahydro-2,8-dimethyl-5-[2-(6-methyl-3-pyridinyl)ethyl]-1H-pyrido[4,3-b]indole] | increase neurite outgrowth | significant improvement | dry mouth | – | – | – | – | – | –
2 | Cc1ccc(/C=C/c2cccc3c4c([nH]c23)CC2CCC4N2C)cn1 (centres unmarked) [Example 1, 11-methyl-4-[(E)-2-(6-methylpyridin-3-yl)vinyl]-5,6,7,8,9,10-hexahydro-7,10-epiminocyclohepta[b]indole] | – | – | – | 27 (n = 1) % | 103% | 0.3 nM | 214% | 3.19 µM | –
3 | O=C1C=C(c2ccccc2)C(=O)N1c1cccc(Cl)c1 [1-(3-chlorophenyl)-3-phenyl-pyrrole-2,5-dione] | – | – | – | – | – | – | – | – | significantly prevented the development of the disease
4 | c1ccc(COc2cccc3c4c([nH]c23)C[C@H]2CCC[C@@H]4N2)cc1 (stereo in doubt) [Example 9, (7R*,11S*)-4-(benzyloxy)-6,7,8,9,10,11-hexahydro-5H-7,11-epiminocycloocta[b]indole] | – | – | – | 45 (n = 1) % | 115% | 0.03 nM | 130% | 6.03 µM | –
